Assay results: PubChem BioAssay AID1963420 (Molecular Pharmacology Branch, DTP, NCI, 2024)
Several values for one entry are separate records, joined by “and”; a condition that tells them apart may be missing. Equal entries are not always repeated.

Tested on: 494315-158-R-J1-PDC complex spheroid growth, percent test/control
Experiment: Anticancer human tumor 494315-158-R-J1-PDC patient-derived soft tissue sarcoma cell line growth inhibition [Asc]
Conditions: for viability, T/C: stronger effect = lower value
Method in brief: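 Concentration series start at each agent's clinical Cmax, or at 10 microM when none is established, and drop in half-log steps; agents are applied alone or together to complex spheroids built with HUVEC and hMSC.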

[1] = curve of first compound, second compound 0.1 µM
[2] = curve of first compound, second compound 0.316 µM
[3] = curve of first compound, second compound 1 µM
[4] = second compound 0.1 µM, first compound 0.0316 µM
[5] = second compound 0.1 µM, first compound 0.1 µM
[6] = second compound 0.1 µM, first compound 0.316 µM
[7] = second compound 0.1 µM, first compound 1 µM
[8] = second compound 0.316 µM, first compound 0.0316 µM
[9] = second compound 0.316 µM, first compound 0.1 µM
[10] = second compound 0.316 µM, first compound 0.316 µM
[11] = second compound 0.316 µM, first compound 1 µM
[12] = second compound 1 µM, first compound 0.0316 µM
[13] = second compound 1 µM, first compound 0.1 µM
[14] = second compound 1 µM, first compound 0.316 µM
[15] = second compound 1 µM, first compound 1 µM
[16] = curve of first compound, second compound 3.16 µM
[17] = curve of first compound, second compound 10 µM
[18] = second compound 0.1 µM, first compound 0.00316 µM
[19] = second compound 0.1 µM, first compound 0.01 µM
[20] = second compound 0.316 µM, first compound 0.00316 µM
[21] = second compound 0.316 µM, first compound 0.01 µM
[22] = second compound 1 µM, first compound 0.00316 µM
[23] = second compound 1 µM, first compound 0.01 µM
[24] = second compound 3.16 µM, first compound 0.00316 µM
[25] = second compound 3.16 µM, first compound 0.01 µM
[26] = second compound 3.16 µM, first compound 0.0316 µM
[27] = second compound 3.16 µM, first compound 0.1 µM
[28] = second compound 3.16 µM, first compound 0.316 µM
[29] = second compound 3.16 µM, first compound 1 µM
[30] = second compound 10 µM, first compound 0.00316 µM
[31] = second compound 10 µM, first compound 0.01 µM
[32] = second compound 10 µM, first compound 0.0316 µM
[33] = second compound 10 µM, first compound 0.1 µM
[34] = second compound 10 µM, first compound 0.316 µM
[35] = second compound 10 µM, first compound 1 µM
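Further: compound exposure lasted seven days after spheroids formed for three days.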

## C=CC(=O)N1CCN(c2nc(=O)n(-c3c(C)ccnc3C(C)C)c3nc(-c4c(O)cccc4F)c(F)cc23)C(C)C1 (configuration not stated) + CNC(C)C(=O)NC1CN(S(=O)(=O)c2cccc(S(=O)(=O)N3CCC4CCC(C(=O)NC(c5ccccc5)c5ccccc5)N4C(=O)C(NC(=O)C(C)NC)C3)c2)CCC2CCC(C(=O)NC(c3ccccc3)c3ccccc3)N2C1=O
Curve of first compound, second compound 0.01 µM
  IC50: > 10 µM
Curve of first compound, second compound 0.0316 µM
  IC50: > 10 µM
[1]
  IC50: > 10 µM
[2]
  IC50: < 0.0316 µM
[3]
  IC50: < 0.0316 µM
Second compound 0.01 µM, first compound 0.0316 µM
  viability, T/C: 72.5%
Second compound 0.01 µM, first compound 0.1 µM
  viability, T/C: 70.5%
Second compound 0.01 µM, first compound 0.316 µM
  viability, T/C: 74.1%
Second compound 0.01 µM, first compound 1 µM
  viability, T/C: 69.5%
Second compound 0.01 µM, first compound 3.16 µM
  viability, T/C: 78.4%
Second compound 0.01 µM, first compound 10 µM
  viability, T/C: 57.8%
Second compound 0.0316 µM, first compound 0.0316 µM
  viability, T/C: 58.2%
Second compound 0.0316 µM, first compound 0.1 µM
  viability, T/C: 60.8%
Second compound 0.0316 µM, first compound 0.316 µM
  viability, T/C: 57.6%
Second compound 0.0316 µM, first compound 1 µM
  viability, T/C: 73.5%
Second compound 0.0316 µM, first compound 3.16 µM
  viability, T/C: 59.5%
Second compound 0.0316 µM, first compound 10 µM
  viability, T/C: 45.2%
[4]
  viability, T/C: 53.2%
[5]
  viability, T/C: 54%
[6]
  viability, T/C: 62.1%
[7]
  viability, T/C: 55.4%
Second compound 0.1 µM, first compound 3.16 µM
  viability, T/C: 60.3%
Second compound 0.1 µM, first compound 10 µM
  viability, T/C: 42.5%
[8]
  viability, T/C: 49%
[9]
  viability, T/C: 50.1%
[10]
  viability, T/C: 46.2%
[11]
  viability, T/C: 45.8%
Second compound 0.316 µM, first compound 3.16 µM
  viability, T/C: 51.5%
Second compound 0.316 µM, first compound 10 µM
  viability, T/C: 42.2%
[12]
  viability, T/C: 45.2%
[13]
  viability, T/C: 49.7%
[14]
  viability, T/C: 44.9%
[15]
  viability, T/C: 35.3%
Second compound 1 µM, first compound 3.16 µM
  viability, T/C: 38.8%
Second compound 1 µM, first compound 10 µM
  viability, T/C: 40.9%

## Cc1nc(N2CCC3(CC2)COC(C)C3N)c(CO)nc1Sc1ccnc(N)c1Cl (configuration not stated) + Cc1c(S(C)(=O)=O)c(-c2cc(F)cc(N3CCN(c4ccc(NS(=O)(=O)c5ccc(NC(CCN6CCC(C(=O)OCCCP(=O)(O)O)CC6)CSc6ccccc6)c(S(=O)(=O)C(F)(F)F)c5)cc4)CC3)c2)c(-c2ccc(Cl)cc2)n1C(C)C
[1]
  IC50: 0.558 µM
[2]
  IC50: 0.26 µM
[3]
  IC50: 0.107 µM
[16]
  IC50: < 0.00949 µM
[17]
  IC50: 0.194 µM
Second compound 0.1 µM, first compound 0.00949 µM
  viability, T/C: 71.1%
Second compound 0.1 µM, first compound 0.03 µM
  viability, T/C: 80.7%
Second compound 0.1 µM, first compound 0.0949 µM
  viability, T/C: 69.1%
Second compound 0.1 µM, first compound 0.3 µM
  viability, T/C: 61.6%
Second compound 0.1 µM, first compound 0.949 µM
  viability, T/C: 40.5%
Second compound 0.1 µM, first compound 3 µM
  viability, T/C: 23.5%
Second compound 0.316 µM, first compound 0.00949 µM
  viability, T/C: 68.3%
Second compound 0.316 µM, first compound 0.03 µM
  viability, T/C: 70%
Second compound 0.316 µM, first compound 0.0949 µM
  viability, T/C: 51.8%
Second compound 0.316 µM, first compound 0.3 µM
  viability, T/C: 55.2%
Second compound 0.316 µM, first compound 0.949 µM
  viability, T/C: 30.5%
Second compound 0.316 µM, first compound 3 µM
  viability, T/C: 17.1%
Second compound 1 µM, first compound 0.00949 µM
  viability, T/C: 71.4%
Second compound 1 µM, first compound 0.03 µM
  viability, T/C: 71%
Second compound 1 µM, first compound 0.0949 µM
  viability, T/C: 49.6%
Second compound 1 µM, first compound 0.3 µM
  viability, T/C: 34.6%
Second compound 1 µM, first compound 0.949 µM
  viability, T/C: 20.7%
Second compound 1 µM, first compound 3 µM
  viability, T/C: 21%
Second compound 3.16 µM, first compound 0.00949 µM
  viability, T/C: 48.8%
Second compound 3.16 µM, first compound 0.03 µM
  viability, T/C: 41.2%
Second compound 3.16 µM, first compound 0.0949 µM
  viability, T/C: 43.6%
Second compound 3.16 µM, first compound 0.3 µM
  viability, T/C: 26.4%
Second compound 3.16 µM, first compound 0.949 µM
  viability, T/C: 22.6%
Second compound 3.16 µM, first compound 3 µM
  viability, T/C: 10.3%
Second compound 10 µM, first compound 0.00949 µM
  viability, T/C: 76.8%
Second compound 10 µM, first compound 0.03 µM
  viability, T/C: 69.6%
Second compound 10 µM, first compound 0.0949 µM
  viability, T/C: 67.6%
Second compound 10 µM, first compound 0.3 µM
  viability, T/C: 38.5%
Second compound 10 µM, first compound 0.949 µM
  viability, T/C: 22.1%
Second compound 10 µM, first compound 3 µM
  viability, T/C: 8.76%

## CCN1CCN(Cc2ccc(Nc3ncc(F)c(-c4cc(F)c5nc(C)n(C(C)C)c5c4)n3)nc2)CC1 + Cc1c(S(C)(=O)=O)c(-c2cc(F)cc(N3CCN(c4ccc(NS(=O)(=O)c5ccc(NC(CCN6CCC(C(=O)OCCCP(=O)(O)O)CC6)CSc6ccccc6)c(S(=O)(=O)C(F)(F)F)c5)cc4)CC3)c2)c(-c2ccc(Cl)cc2)n1C(C)C
[1]
  IC50: > 1 µM
[2]
  IC50: 0.829 µM
[3]
  IC50: > 1 µM
[16]
  IC50: 0.272 µM
[17]
  IC50: 0.725 µM
[18]
  viability, T/C: 75.6%
[19]
  viability, T/C: 83%
[4]
  viability, T/C: 78.3%
[5]
  viability, T/C: 77.1%
[6]
  viability, T/C: 77.8%
[7]
  viability, T/C: 53.6%
[20]
  viability, T/C: 72.2%
[21]
  viability, T/C: 79.8%
[8]
  viability, T/C: 78%
[9]
  viability, T/C: 67.1%
[10]
  viability, T/C: 70.9%
[11]
  viability, T/C: 46.1%
[22]
  viability, T/C: 61.9%
[23]
  viability, T/C: 65.7%
[12]
  viability, T/C: 68%
[13]
  viability, T/C: 65.7%
[14]
  viability, T/C: 61.6%
[15]
  viability, T/C: 41.1%
[24]
  viability, T/C: 56.1%
[25]
  viability, T/C: 52%
[26]
  viability, T/C: 54.3%
[27]
  viability, T/C: 61.4%
[28]
  viability, T/C: 46.2%
[29]
  viability, T/C: 31.3%
[30]
  viability, T/C: 79%
[31]
  viability, T/C: 81%
[32]
  viability, T/C: 73.2%
[33]
  viability, T/C: 76.7%
[34]
  viability, T/C: 73.3%
[35]
  viability, T/C: 41%

## COc1c(OCCCN2CCOCC2)ccc2c3n(c(=NC(=O)c4cnc(N)nc4)nc12)CCN3 + Cc1c(S(C)(=O)=O)c(-c2cc(F)cc(N3CCN(c4ccc(NS(=O)(=O)c5ccc(NC(CCN6CCC(C(=O)OCCCP(=O)(O)O)CC6)CSc6ccccc6)c(S(=O)(=O)C(F)(F)F)c5)cc4)CC3)c2)c(-c2ccc(Cl)cc2)n1C(C)C
[1]
  IC50: 0.0378 µM
[2]
  IC50: 0.0147 µM
[3]
  IC50: 0.0165 µM
[16]
  IC50: 0.00318 µM
[17]
  IC50: 0.00927 µM
[18]
  viability, T/C: 69.7%
[19]
  viability, T/C: 60.7%
[4]
  viability, T/C: 55.6%
[5]
  viability, T/C: 29.8%
[6]
  viability, T/C: 18%
[7]
  viability, T/C: 12.9%
[20]
  viability, T/C: 67.6%
[21]
  viability, T/C: 56.1%
[8]
  viability, T/C: 37.6%
[9]
  viability, T/C: 32.1%
[10]
  viability, T/C: 15.8%
[11]
  viability, T/C: 11.1%
[22]
  viability, T/C: 68.3%
[23]
  viability, T/C: 58%
[12]
  viability, T/C: 39.5%
[13]
  viability, T/C: 26.6%
[14]
  viability, T/C: 14%
[15]
  viability, T/C: 10.7%
[24]
  viability, T/C: 49.7%
[25]
  viability, T/C: 45%
[26]
  viability, T/C: 32.7%
[27]
  viability, T/C: 21.4%
[28]
  viability, T/C: 12.5%
[29]
  viability, T/C: 8.31%
[30]
  viability, T/C: 69.3%
[31]
  viability, T/C: 49%
[32]
  viability, T/C: 31.2%
[33]
  viability, T/C: 21.1%
[34]
  viability, T/C: 12.8%
[35]
  viability, T/C: 9.05%

## O=C(c1cc(Cc2n[nH]c(=O)c3ccccc23)ccc1F)N1CCN(C(=O)C2CC2)CC1
Compound 0.0316 µM
  viability, T/C: 83.7% and 85.7% and 88.2%
Compound 0.1 µM
  viability, T/C: 101% and 95% and 86.5%
Compound 0.316 µM
  viability, T/C: 76.7% and 88.8% and 89.9%
Compound 1 µM
  viability, T/C: 83.8% and 84.5% and 81.4%
Compound 3.16 µM
  viability, T/C: 69.5% and 85.8% and 85.3%
Compound 10 µM
  viability, T/C: 52.3% and 55.7% and 50%
Curve of compound
  IC50: > 10 µM
